Source: patent US20240358693A1, “METHODS OF TREATING PAIN” (Aisa Pharma, Inc., priority 2023, published 2024)

System: participants with SSc-RP
Assay: Scleroderma Health Assessment Questionnaire (SHAQ): disability indices and visual analog scales
Assay type: in vivo, human
Conditions: for SHAQ Standard Disability Index: Baseline, Mean / SHAQ Standard Disability Index: Baseline, Median / SHAQ Standard Disability Index: Change from Baseline (Day 12), Mean / SHAQ Standard Disability Index: Change from Baseline (Day 12), Median / SHAQ Standard Disability Index: In-Clinic Visit (Day 12), Mean / SHAQ Standard Disability Index: In-Clinic Visit (Day 12), Median / SHAQ Standard Disability Index: Percent Change from Baseline (Day 12), Mean / SHAQ Standard Disability Index: Percent Change from Baseline (Day 12), Median: PP Population
Method in brief: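 Participants with SSc-RP completed the SHAQ at screening and each in-clinic visit. Standard and alternative disability indices (eight categories, 0–3; standard adjusts for aids/assistance) plus Raynaud's VAS on interference over the past 7 days. Reported as absolute change from baseline to end of each dosing period.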

[1] = Pooled Cilnidipine (N = 7), sensitivity analysis, Modified ITT, Part A
[2] = Pooled Cilnidipine (N = 8), Day 12, PP Population Part A, SSc patients
[3] = Pooled Cilnidipine (N = 8), PP Population Part A, SSc patients
[4] = Pooled Cilnidipine (n = 7), mITT population
[5] = Table C9, Part A, sensitivity analysis, Pooled Cilnidipine 10 mg and Cilnidipine 10 mg + Tadalafil 5 mg
[6] = Table C9, Part A, sensitivity analysis, Pooled Cilnidipine 20 mg and Cilnidipine 20 mg + Tadalafil 5 mg
[7] = Table C9, Part A, sensitivity analysis, pooled cilnidipine 10 mg and 20 mg arms (plus tadalafil 5 mg where labelled)
[8] = Table C10, Part A, sensitivity analysis, Pooled Cilnidipine 10 mg and Cilnidipine 10 mg + Tadalafil 5 mg
[9] = Table C10, Part A, sensitivity analysis, Pooled Cilnidipine 20 mg and Cilnidipine 20 mg + Tadalafil 5 mg
[10] = Table C10, Part A, sensitivity analysis, pooled cilnidipine 10 mg and 20 mg arms (plus tadalafil 5 mg where labelled)

COCCOC(=O)C1=C(C)NC(C)=C(C(=O)OC/C=C/c2ccccc2)C1c1cccc([N+](=O)[O-])c1 (stereo not drawn) [Cilnidipine, cilnidipine]
SHAQ VAS Breathing Problems: Change from Baseline, Median [1]: 0.000
SHAQ VAS Breathing Problems: Day 12, Mean [1]: 1.029
SHAQ VAS Breathing Problems: Day 12, Median [1]: 0.000
SHAQ VAS Breathing Problems: Percent Change from Baseline, Mean [1]: −8.17%
SHAQ VAS Breathing Problems: Percent Change from Baseline, Median [1]: −41.33%
SHAQ VAS Finger Ulcers: Baseline, Mean [1]: 1.171
SHAQ VAS Finger Ulcers: Baseline, Median [1]: 0.300
SHAQ VAS Finger Ulcers: Change from Baseline, Mean [1]: −0.643
SHAQ VAS Finger Ulcers: Change from Baseline, Median [1]: 0.000
SHAQ VAS Finger Ulcers: Day 12, Mean [1]: 0.529
SHAQ VAS Finger Ulcers: Day 12, Median [1]: 0.000
SHAQ VAS Finger Ulcers: Percent Change from Baseline, Mean [1]: −17.08%
SHAQ VAS Finger Ulcers: Percent Change from Baseline, Median [1]: −50.82%
SHAQ VAS Intestinal Problems: Baseline, Mean [1]: 2.057
SHAQ VAS Intestinal Problems: Baseline, Median [1]: 1.000
SHAQ VAS Intestinal Problems: Change from Baseline, Mean [1]: −0.943
SHAQ VAS Intestinal Problems: Change from Baseline, Median [1]: 0.000
SHAQ VAS Intestinal Problems: Day 12, Mean [1]: 1.114
SHAQ VAS Intestinal Problems: Day 12, Median [1]: 0.600
SHAQ VAS Intestinal Problems: Percent Change from Baseline, Mean [1]: −32.42%
SHAQ VAS Intestinal Problems: Percent Change from Baseline, Median [1]: −44.12%
SHAQ VAS Overall Disease Severity: Baseline, Mean [1]: 2.700
SHAQ VAS Overall Disease Severity: Baseline, Median [1]: 2.900
SHAQ VAS Overall Disease Severity: Change from Baseline, Mean [1]: −1.214
SHAQ VAS Overall Disease Severity: Change from Baseline, Median [1]: −1.500
SHAQ VAS Overall Disease Severity: Day 12, Mean [1]: 1.486
SHAQ VAS Overall Disease Severity: Day 12, Median [1]: 1.200
SHAQ VAS Overall Disease Severity: Percent Change from Baseline, Mean [1]: −59.80%
SHAQ VAS Overall Disease Severity: Percent Change from Baseline, Median [1]: −55.86%
SHAQ VAS Pain: Baseline, Mean [1]: 2.057
SHAQ VAS Pain: Baseline, Median [1]: 1.700
SHAQ VAS Pain: Change from Baseline, Mean [1]: −0.529
SHAQ VAS Pain: Change from Baseline, Median [1]: −0.500
SHAQ VAS Pain: Day 12, Mean [1]: 1.529
SHAQ VAS Pain: Day 12, Median [1]: 1.000
SHAQ VAS Pain: Percent Change from Baseline, Mean [1]: −31.22%
SHAQ VAS Pain: Percent Change from Baseline, Median [1]: −44.98%
SHAQ VAS Raynaud's: Baseline, Mean [1]: 1.900
SHAQ VAS Raynaud's: Baseline, Median [1]: 1.100
SHAQ VAS Raynaud's: Change from Baseline, Mean [1]: −0.357
SHAQ VAS Raynaud's: Change from Baseline, Median [1]: −0.300
SHAQ VAS Raynaud's: Day 12, Mean [1]: 1.543
SHAQ VAS Raynaud's: Day 12, Median [1]: 1.100
SHAQ VAS Raynaud's: Percent Change from Baseline, Mean [1]: −18.64%
SHAQ VAS Raynaud's: Percent Change from Baseline, Median [1]: −38.67%
SHAQ Standard Disability Index, Change from Baseline, Mean [2]: −0.031
SHAQ Standard Disability Index, Change from Baseline, Median [2]: 0.000
SHAQ Standard Disability Index, Percent Change from Baseline, Mean [2]: −16.00%
SHAQ Standard Disability Index, Percent Change from Baseline, Median [2]: 0.00%
SHAQ Standard Disability Index, In-Clinic Visit (Day 12), Mean [3]: 0.469
SHAQ Standard Disability Index, In-Clinic Visit (Day 12), Median [3]: 0.188
SHAQ % change VAS Raynauds [4]: −17%
SHAQ % change in Alternative Disability Index [4]: −13%
SHAQ % change in Pain [4]: −31%
SHAQ % change in Standard Disability Index [4]: −25%
SHAQ % change overall SSc Disease Severity [4]: −60%
SHAQ % improvement in Breathing (median) [4]: 41%
SHAQ % improvement in VAS Digital Ulcers [4]: 19%
SHAQ % Δ from baseline, VAS Breathing, mean (Pooled cilnidipine (4)): −8.2%
SHAQ % Δ from baseline, VAS Breathing, median (Pooled cilnidipine (4)): −41.3%
SHAQ % Δ from baseline, VAS Finger Ulcers, mean (Pooled cilnidipine (4)): −17.1%
SHAQ % Δ from baseline, VAS Finger Ulcers, median (Pooled cilnidipine (4)): −50.9%
SHAQ % Δ from baseline, alternative disability, mean (Pooled cilnidipine (4)): −12.9%
SHAQ % Δ from baseline, alternative disability, median (Pooled cilnidipine (4)): −22.2%
SHAQ % Δ from baseline, standard disability, mean (Pooled cilnidipine (4)): −25%
SHAQ % Δ from baseline, standard disability, median (Pooled cilnidipine (4)): −16.7%
SHAQ % Δ from baseline, Intestinal Problems, mean (Pooled cilnidipine (5)): −32.4%
SHAQ % Δ from baseline, Intestinal Problems, median (Pooled cilnidipine (5)): −44.1%
SHAQ % Δ from baseline, VAS Overall Disease Severity, mean (Pooled cilnidipine (6)): −59.8%
SHAQ % Δ from baseline, VAS Overall Disease Severity, median (Pooled cilnidipine (6)): −55.9%
SHAQ % Δ from baseline, VAS Pain, mean (Pooled cilnidipine (6)): −31.2%
SHAQ % Δ from baseline, VAS Pain, median (Pooled cilnidipine (6)): −45%
SHAQ % Δ from baseline, VAS Raynaud's, mean (Pooled cilnidipine (6)): −18.6%
SHAQ % Δ from baseline, VAS Raynaud's, median (Pooled cilnidipine (6)): −38.7%
SHAQ Standard Disability Index: Baseline, Mean [5]: 0.597
SHAQ Standard Disability Index: Baseline, Median [5]: 0.500
SHAQ Standard Disability Index: Change from Baseline (Day 12), Mean [5]: −0.021
SHAQ Standard Disability Index: Change from Baseline (Day 12), Median [5]: 0.000
SHAQ Standard Disability Index: In-Clinic Visit (Day 12), Mean [5]: 0.576
SHAQ Standard Disability Index: In-Clinic Visit (Day 12), Median [5]: 0.375
SHAQ Standard Disability Index: Percent Change from Baseline (Day 12), Mean [5]: 7.50%
SHAQ Standard Disability Index: Percent Change from Baseline (Day 12), Median [5]: 0.00%
SHAQ Standard Disability Index: Baseline, Mean [6]: 0.563
SHAQ Standard Disability Index: Baseline, Median [6]: 0.375
SHAQ Standard Disability Index: Change from Baseline (Day 12), Mean [6]: −0.065
SHAQ Standard Disability Index: Change from Baseline (Day 12), Median [6]: 0.000
SHAQ Standard Disability Index: In-Clinic Visit (Day 12), Mean [6]: 0.498
SHAQ Standard Disability Index: In-Clinic Visit (Day 12), Median [6]: 0.250
SHAQ Standard Disability Index: Percent Change from Baseline (Day 12), Mean [6]: −1.66%
SHAQ Standard Disability Index: Percent Change from Baseline (Day 12), Median [6]: −12.82%
SHAQ Standard Disability Index: Baseline, Mean [7]: 0.500
SHAQ Standard Disability Index: Baseline, Median [7]: 0.375
SHAQ Standard Disability Index: Change from Baseline (Day 12), Mean [7]: −0.031
SHAQ Standard Disability Index: Change from Baseline (Day 12), Median [7]: 0.000
SHAQ Standard Disability Index: In-Clinic Visit (Day 12), Mean [7]: 0.469
SHAQ Standard Disability Index: In-Clinic Visit (Day 12), Median [7]: 0.188
SHAQ Standard Disability Index: Percent Change from Baseline (Day 12), Mean [7]: −16.00%
SHAQ Standard Disability Index: Percent Change from Baseline (Day 12), Median [7]: 0.00%
SHAQ Standard Disability Index: Baseline, Mean [8]: 0.597
SHAQ Standard Disability Index: Baseline, Median [8]: 0.500
SHAQ Standard Disability Index: Change from Baseline (Day 12), Mean [8]: −0.021
SHAQ Standard Disability Index: Change from Baseline (Day 12), Median [8]: 0.000
SHAQ Standard Disability Index: In-Clinic Visit (Day 12), Mean [8]: 0.576
SHAQ Standard Disability Index: In-Clinic Visit (Day 12), Median [8]: 0.375
SHAQ Standard Disability Index: Percent Change from Baseline (Day 12), Mean [8]: 7.50%
SHAQ Standard Disability Index: Percent Change from Baseline (Day 12), Median [8]: 0.00%
SHAQ Standard Disability Index: Baseline, Mean [9]: 0.563
SHAQ Standard Disability Index: Baseline, Median [9]: 0.375
SHAQ Standard Disability Index: Change from Baseline (Day 12), Mean [9]: −0.065
SHAQ Standard Disability Index: Change from Baseline (Day 12), Median [9]: 0.000
SHAQ Standard Disability Index: In-Clinic Visit (Day 12), Mean [9]: 0.498
SHAQ Standard Disability Index: In-Clinic Visit (Day 12), Median [9]: 0.250
SHAQ Standard Disability Index: Percent Change from Baseline (Day 12), Mean [9]: −1.66%
SHAQ Standard Disability Index: Percent Change from Baseline (Day 12), Median [9]: −12.82%
SHAQ Standard Disability Index: Baseline, Mean [10]: 0.500
SHAQ Standard Disability Index: Baseline, Median [10]: 0.375
SHAQ Standard Disability Index: Change from Baseline (Day 12), Mean [10]: −0.031
SHAQ Standard Disability Index: Change from Baseline (Day 12), Median [10]: 0.000
SHAQ Standard Disability Index: In-Clinic Visit (Day 12), Mean [10]: 0.469
SHAQ Standard Disability Index: In-Clinic Visit (Day 12), Median [10]: 0.188
SHAQ Standard Disability Index: Percent Change from Baseline (Day 12), Mean [10]: −16.00%
SHAQ Standard Disability Index: Percent Change from Baseline (Day 12), Median [10]: 0.00%
mean decrease in patient reported disease severity on the SHAQ (pooled cilnidipine patients, 10 mg or 20 mg (n=7)): 60%
